Data from patent US11076594B2, “Pyrazolone compound or salt thereof, preparation method therefor, herbicide composition and use thereof” (QINGDAO KINGAGROOT CHEMICAL COMPOUNDS CO., LTD., priority 2015, dated 2021).

Experiments:
Format in all cases: in vivo
Indian mallow = assay: weed control effect in post-emergence stage (Table 1); set-up: key: Level 10: completely dead; Level 9: above 95% growth control rate; Level 8: above 90% growth control rate; Level 7: above 80% growth control rate; Level 6: above 70% growth control rate; Level 5: above 60% growth control rate; Level 4: above 50% growth control rate; Level 3: above 20% growth control rate; Level 2: 5%-20% growth control rate; Level 1: below 5% growth control rate; settings: post-emergence spray at 4-5 leaf stage, 250 g/ha active ingredient with 450 kg/ha water, rated after 3 weeks in greenhouse
Summary of the method: (§1)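 Weed and crop seeds sown in soil-filled pots under 0.5-2 cm soil, greenhouse-grown, then sprayed at 4-5 leaf stage (2-3 weeks after sowing) with compound in acetone/Tween 80/water. Fresh weight growth control rate assessed after 3 weeks in greenhouse.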

bidens bipinnata = assay: as above; set-up: key: Level 10: completely dead; Level 9: above 95% growth control rate; Level 8: above 90% growth control rate; Level 7: above 80% growth control rate; Level 6: above 70% growth control rate; Level 5: above 60% growth control rate; Level 4: above 50% growth control rate; Level 3: above 20% growth control rate; Level 2: 5%-20% growth control rate; Level 1: below 5% growth control rate; settings: post-emergence spray at 4-5 leaf stage, 250 g/ha active ingredient with 450 kg/ha water, rated after 3 weeks in greenhouse
Summary of the method: as §1

crab grass = assay: as above; set-up: key: Level 10: completely dead; Level 9: above 95% growth control rate; Level 8: above 90% growth control rate; Level 7: above 80% growth control rate; Level 6: above 70% growth control rate; Level 5: above 60% growth control rate; Level 4: above 50% growth control rate; Level 3: above 20% growth control rate; Level 2: 5%-20% growth control rate; Level 1: below 5% growth control rate; settings: post-emergence spray at 4-5 leaf stage, 250 g/ha active ingredient with 450 kg/ha water, rated after 3 weeks in greenhouse
Summary of the method: as §1

echinochloa = assay: as above; set-up: key: Level 10: completely dead; Level 9: above 95% growth control rate; Level 8: above 90% growth control rate; Level 7: above 80% growth control rate; Level 6: above 70% growth control rate; Level 5: above 60% growth control rate; Level 4: above 50% growth control rate; Level 3: above 20% growth control rate; Level 2: 5%-20% growth control rate; Level 1: below 5% growth control rate; settings: post-emergence spray at 4-5 leaf stage, 250 g/ha active ingredient with 450 kg/ha water, rated after 3 weeks in greenhouse
Summary of the method: as §1

foxtail = assay: as above; set-up: key: Level 10: completely dead; Level 9: above 95% growth control rate; Level 8: above 90% growth control rate; Level 7: above 80% growth control rate; Level 6: above 70% growth control rate; Level 5: above 60% growth control rate; Level 4: above 50% growth control rate; Level 3: above 20% growth control rate; Level 2: 5%-20% growth control rate; Level 1: below 5% growth control rate; settings: post-emergence spray at 4-5 leaf stage, 250 g/ha active ingredient with 450 kg/ha water, rated after 3 weeks in greenhouse
Summary of the method: as §1

rorippa indica = assay: as above; set-up: key: Level 10: completely dead; Level 9: above 95% growth control rate; Level 8: above 90% growth control rate; Level 7: above 80% growth control rate; Level 6: above 70% growth control rate; Level 5: above 60% growth control rate; Level 4: above 50% growth control rate; Level 3: above 20% growth control rate; Level 2: 5%-20% growth control rate; Level 1: below 5% growth control rate; settings: post-emergence spray at 4-5 leaf stage, 250 g/ha active ingredient with 450 kg/ha water, rated after 3 weeks in greenhouse
Summary of the method: as §1

wheat [1] = assay: post-emergence stage experiment, crop (Table 1); settings: post-emergence spray at 4-5 leaf stage, 250 g/ha active ingredient with 450 kg/ha water, rated after 3 weeks in greenhouse
Summary of the method: as §1

rice = assay: post-emergence stage experiment, crop (Table 1); settings: post-emergence spray at 4-5 leaf stage, 250 g/ha active ingredient with 450 kg/ha water, rated after 3 weeks in greenhouse
Summary of the method: as §1

wheat [2] = assay: wheat field test, crop selectivity, greenhouse spray at 4 leaf stage; settings: 4 weeks after treatment
Protocol: (§2) The activity level standard of harmful plant destruction (i.e. growth control rate) is as follows:
(§3) The above described growth control rate is fresh weight control rate.
(§4) The seeds of alopecurus japonicas, flixweed, shepherd's purse, corn gromwell, chickweed, beckmannia syzigachne, and annual ryegrass and wheat seeds were put into a plastic pot loaded with soil, and then covered with 0.5-2 cm soil, the seeds were allowed to grow in good greenhouse environment. The test plants were treated at 4 leaf stage 2-3 weeks after sowing. The test compounds of the present invention were dissolved in acetone respectively, then added with methyl oleate emulsion and diluted by certain amount of water to certain concentration. The solution was sprayed to the plant with a sprayer. Then the plants were cultured for 4 weeks in greenhouse.

chickweed = assay: wheat field resistant broadleaf weed control, greenhouse spray at 4 leaf stage; set-up: key: Level 10: completely dead; Level 9: above 95% growth control rate; Level 8: above 90% growth control rate; Level 7: above 80% growth control rate; Level 6: above 70% growth control rate; Level 5: above 60% growth control rate; Level 4: above 50% growth control rate; Level 3: above 20% growth control rate; Level 2: 5%-20% growth control rate; Level 1: below 5% growth control rate; settings: 250 g/ha of the active substance; 4 weeks after treatment; ALS inhibitor resistant
Protocol: as §2, §3, §4

corn gromwell = assay: as above; set-up: key: Level 10: completely dead; Level 9: above 95% growth control rate; Level 8: above 90% growth control rate; Level 7: above 80% growth control rate; Level 6: above 70% growth control rate; Level 5: above 60% growth control rate; Level 4: above 50% growth control rate; Level 3: above 20% growth control rate; Level 2: 5%-20% growth control rate; Level 1: below 5% growth control rate; settings: 250 g/ha of the active substance; 4 weeks after treatment; ALS inhibitor resistant
Protocol: as §2, §3, §4

flixweed = assay: as above; set-up: key: Level 10: completely dead; Level 9: above 95% growth control rate; Level 8: above 90% growth control rate; Level 7: above 80% growth control rate; Level 6: above 70% growth control rate; Level 5: above 60% growth control rate; Level 4: above 50% growth control rate; Level 3: above 20% growth control rate; Level 2: 5%-20% growth control rate; Level 1: below 5% growth control rate; settings: 250 g/ha of the active substance; 4 weeks after treatment; ALS inhibitor resistant
Protocol: as §2, §3, §4

shepherd's purse = assay: as above; set-up: key: Level 10: completely dead; Level 9: above 95% growth control rate; Level 8: above 90% growth control rate; Level 7: above 80% growth control rate; Level 6: above 70% growth control rate; Level 5: above 60% growth control rate; Level 4: above 50% growth control rate; Level 3: above 20% growth control rate; Level 2: 5%-20% growth control rate; Level 1: below 5% growth control rate; settings: 250 g/ha of the active substance; 4 weeks after treatment; ALS inhibitor resistant
Protocol: as §2, §3, §4

corn = assay: post-emergence stage experiment, crop (Table 1); settings: post-emergence spray at 4-5 leaf stage, 250 g/ha active ingredient with 450 kg/ha water, rated after 3 weeks in greenhouse
Summary of the method: as §1

alopecurus japonicas = assay: wheat field resistant weed control, greenhouse spray at 4 leaf stage; set-up: key: Level 10: completely dead; Level 9: above 95% growth control rate; Level 8: above 90% growth control rate; Level 7: above 80% growth control rate; Level 6: above 70% growth control rate; Level 5: above 60% growth control rate; Level 4: above 50% growth control rate; Level 3: above 20% growth control rate; Level 2: 5%-20% growth control rate; Level 1: below 5% growth control rate; settings: sprayed at 4 leaf stage, 4 weeks after treatment, resistant to ALS and ACCase inhibitor herbicides
Protocol: as §2, §3, §4

[3] = 250 g/ha of the active substance
[4] = 2 g/mu, sprayed at 4 leaf stage
[5] = 4 g/mu, sprayed at 4 leaf stage
[6] = 8 g/mu, sprayed at 4 leaf stage
[7] = 16 g/mu, sprayed at 4 leaf stage
[8] = 32 g/mu, sprayed at 4 leaf stage

| Structure (SMILES) | weed control effect, Indian mallow (level) (Indian mallow) | weed control effect, Bidens bipinnata (level) (bidens bipinnata) | weed control effect, Crab grass (level) (crab grass) | weed control effect, Echinochloa (level) (echinochloa) | weed control effect, Green foxtail (level) (foxtail) | weed control effect, Rorippa indica (level) (rorippa indica) | effect on crop, Wheat (level) (wheat [1]) | effect on crop, Rice (level) (rice) | Wheat (activity level, crop damage) (wheat [2]; [3]) | chickweed weed controlling effect (activity level) (chickweed) | corn gromwell weed controlling effect (activity level) (corn gromwell) | flixweed weed controlling effect (activity level) (flixweed) | shepherd's purse weed controlling effect (activity level) (shepherd's purse) | effect on crop, Corn (level) (corn) | Alopecurus japonicas weed controlling effect (activity level) (alopecurus japonicas; 1 g/mu) | Alopecurus japonicas weed controlling effect (activity level) (alopecurus japonicas; 2 g/mu) | Alopecurus japonicas weed controlling effect (activity level) (alopecurus japonicas; 4 g/mu) | Alopecurus japonicas weed controlling effect (activity level) (alopecurus japonicas; 8 g/mu) | Wheat (activity level, crop damage) (wheat [2]; [4]) | Wheat (activity level, crop damage) (wheat [2]; [5]) | also measured |
| --- | --- | --- | --- | --- | --- | --- | --- | --- | --- | --- | --- | --- | --- | --- | --- | --- | --- | --- | --- | --- | --- |
| CC(=O)N(CC(F)F)c1c(C(F)(F)F)ccc(C(=O)c2c(C)nn(C)c2O)c1Cl [Compound 005] | 10 | 10 | 2 (Level 2: 5%-20% growth control rate) | 10 | 5 (Level 5: above 60% growth control rate) | 10 | 0 | 7 (Level 7: above 80% growth control rate) | 0 | 10 | 10 | 10 | 10 | – | – | – | – | – | – | – | – |
| Cc1cnn(-c2c(C(F)(F)F)ccc(C(=O)c3c(C4CC4)nn(C)c3OC(=O)c3cn(C)nc3C)c2Cl)c1 [Compound 090] | 10 | – | 1 (Level 1: below 5% growth control rate) | 6 (Level 6: above 70% growth control rate) | 2 (Level 2: 5%-20% growth control rate) | 10 | 0 | 2 (Level 2: 5%-20% growth control rate) | 0 | 10 | 10 | 10 | 10 | 1 (Level 1: below 5% growth control rate) | – | – | – | – | – | – | – |
| Cn1cc(C(=O)Oc2c(C(=O)c3ccc(C(F)(F)F)c(N4CCCCC4=O)c3Cl)c(C3CC3)nn2C)cn1 [Compound 049] | 10 | 4 (Level 4: above 50% growth control rate) | 6 (Level 6: above 70% growth control rate) | 6 (Level 6: above 70% growth control rate) | 9 (Level 9: above 95% growth control rate) | 10 | 3 (Level 3: above 20% growth control rate) | 7 (Level 7: above 80% growth control rate) | – | – | – | – | – | 2 (Level 2: 5%-20% growth control rate) | 8 (Level 8: above 90% growth control rate) | 9 (Level 9: above 95% growth control rate) | 10 | 10 | 0 | 1 (Level 1: below 5% growth control rate) | Wheat (activity level, crop damage) (wheat [2]; [6]): 1 (Level 1: below 5% growth control rate); Wheat (activity level, crop damage) (wheat [2]; [7]): 3 (Level 3: above 20% growth control rate); Wheat (activity level, crop damage) (wheat [2]; [8]): 3 (Level 3: above 20% growth control rate) |
| Cc1nn(C)cc1C(=O)Oc1c(C(=O)c2ccc(C(F)(F)F)c(N3CCCC3=O)c2Cl)c(C2CC2)nn1C [Compound 027] | 10 | 8 (Level 8: above 90% growth control rate) | 8 (Level 8: above 90% growth control rate) | 7 (Level 7: above 80% growth control rate) | 10 | 7 (Level 7: above 80% growth control rate) | 3 (Level 3: above 20% growth control rate) | 7 (Level 7: above 80% growth control rate) | – | – | – | – | – | 4 (Level 4: above 50% growth control rate) | 6 (Level 6: above 70% growth control rate) | 10 | 10 | 10 | 1 (Level 1: below 5% growth control rate) | 4 (Level 4: above 50% growth control rate) | Wheat (activity level, crop damage) (wheat [2]; [6]): 4 (Level 4: above 50% growth control rate); Wheat (activity level, crop damage) (wheat [2]; [7]): 4 (Level 4: above 50% growth control rate); Wheat (activity level, crop damage) (wheat [2]; [8]): 5 (Level 5: above 60% growth control rate) |
| CC(C)n1nc(C2CC2)c(C(=O)c2ccc(C(F)(F)F)c(N3CCCCC3=O)c2Cl)c1O [Compound 147] | – | – | – | – | – | – | – | – | 0 | 9 (Level 9: above 95% growth control rate) | 10 | 10 | 10 | – | – | – | – | – | – | – | – |
| O=C(c1ccc(C(F)(F)F)c(N2CCCCC2=O)c1Cl)c1c(C2CC2)nn(C2CC2)c1O [Compound 148] | – | – | – | – | – | – | – | – | 1 (Level 1: below 5% growth control rate) | 10 | 10 | 10 | 10 | – | – | – | – | – | – | – | – |
